This is an account of results in patent US12544348B2, “Methods for treating APOE4/4-associated disorders” (The Regents of the University of California, priority 2018, dated 2026).

The assay has as its system apoE4/4-iPSC-derived human neurons. Briefly: RNA-Seq analysis of apoE4/4-iPSC-derived human neurons. The format is cell-based. The note with it: 10 μM, 6 hours. The source says:
Neuronal Differentiation of Human apoE4/4-iPSCs. Human iPS lines were generated from skin fibroblasts of a subject with apoE4/4 genotype and were maintained under feeder-free conditions in mTeSR1 medium (STEMCELL Technologies). Human apoE4/4-iPSCs were routinely passaged at 1:2-1:4 by brief treatment with Accutase (Millipore) and scraping. The human iPSC protocol was approved by the Committee on Human Research at the University of California. The apoE4/4-iPSCs were differentiated into neurons as reported with modifications. iPSCs were treated with collagenase IV (Stem Cell Technologies) and grown in suspension as embryoid bodies in hES medium without bFGF. The medium was replaced every day for 5 days. On day 5, embryoid bodies were grown in Neural Induction Medium containing Dulbecco's modified Eagle's medium/F12 and Neurobasal Medium (1:1, Thermo Fisher), 1% N2 Supplement (Life Technologies), 1% B27 Supplement (Life Technologies), nonessential amino acids, and 0.5% penicillin/streptomycin (Life Technologies) supplemented with inhibitors of the TGF-β receptor (SB431542, Stemgent; 5 μM) and the bone morphogenetic protein receptor (LDN-193189, Stemgent; 0.25 μM). On day 7, spheres were transferred to wells coated with Matrigel (BD Biosciences) and grown in Neural Progenitor Medium, which consisted of Neural Induction Medium without SB and LDN, but containing 10 ng/ml bFGF (PeproTech), 10 ng/ml epidermal growth factor (EGF) (PeproTech), and 2 μg/ml heparin (Sigma). Attached neuroepithelial cells were fed every other day for 7 days. Neural rosette structures appeared by around day 15, were lifted off the plate, and grown in suspension in Neural Progenitor Medium to form neurospheres. For neuronal differentiation, neurospheres were dissociated with Accutase and plated on culture plates coated with 100 μg/ml poly-1-ornithine (Sigma) and 10 μg/ml laminin (Sigma). Neuronal cultures were maintained in Neural Differentiation Medium consisting of Neural Progenitor Medium, brain-derived neurotrophic factor (10 ng/ml; PeproTech), and glial cell-derived growth factor (10 ng/ml; PeproTech) without bFGF, EGF, or heparin. Neurons were observed after several days and were further differentiated for 30 days or longer. Most of the experiments were performed on the neuronal culture differentiated beyond 8 weeks. This culture condition generated neuronal cells with 75±4% vGLUT^+ total glutamatergic excitatory neurons, 15±3% GABA^+ GABAergic inhibitory neurons, and 5±2% TH^+ dopaminergic neurons. RNA-Seq Analysis of Human ApoE4/4-iPS-derived Neurons. Total RNA was extracted and purified from apoE4/4-iPSC-derived human neurons with the Qiagen RNeasy Micro kit, which included a DNase treatment. cDNA was generated from full-length RNA (50 ng per sample) with the NuGEN RNA-Seq V2 kit, which uses the single primer isothermal amplification method to deplete ribosomal RNA, and sheared by Covaris to yield fragments of uniform size. The NuGen Ultralow system V2 was used for adding adapters and for barcoding and amplification. The resulting RNA libraries were purified with Agencourt XP magnetic beads, and quantified by qPCR after quality control with an Agilent Bioanalyzer. The libraries were pooled and sequenced with a HiSeq 4000 instrument (Illumina) for single-end (SE50) sequencing. Sequence data were aligned with the STAR short read aligner and counts per feature were obtained with the featureCounts function from the Subread package. […]

[1] abbreviates: vs vehicle, P<0.05 by Monte Carlo Simulation.

Regarding `CCCCNc1cc(C(=O)O)cc(S(N)(=O)=O)c1Oc1ccccc1` [bumetanide, 3-(butylamino)-4-phenoxy-5-sulfamoylbenzoic acid], the “number of pathways also shared with the apoE4/4 AD signature from humans” value was 4, the “number of pathways overlapping with mouse hippocampal neuronal cells exhibiting the predicted drug effect” value is 14 and the “number of significantly perturbed pathways” value turned out to be 27. Besides, under setting [1], the “shift in FC rank of genes downregulated in apoE4/4 AD” value is “shifted upward towards lower rank numbers” and the “shift in FC rank of genes upregulated in apoE4/4 AD” value was “shifted downward towards higher rank numbers”.
